Results on 26 compounds are retold here after patent US6239125A, “Azetidinone derivatives for the treatment of HCMV infections” (Boehringer Ingelheim (Canada) Ltd., priority 1998, dated 2001).

Series [1] has as its target T1, HCMV No protease (Human cytomegalovirus, UniProt P16753). As to the kind of experiment: HCMV No Protease Assay (fluorogenic substrate, IC50). The note with it: fluorogenic substrate cleaved by HCMV No protease. The format is biochemical.
Series [2] has as its target T1, HCMV No protease. The description is as above. The format is biochemical. The note with it: HCMV No protease 100 nM, substrate 5 μM, 2.5 h at 30°, pH 8; Table 1 and Table 2. Here is the method:
This particular assay determines the ability of a test compound to inhibit the activity (IC50) of HCMV protease. More specifically, in the assay described herein, the inhibitory activity of the test compound is evaluated on the basis of its ability to interfere with the HCMV No protease cleavage of a fluorogenic peptide substrate which in turn is based on the maturation cleavage site of the enzyme.
1. HCMV No Protease Assay
Material & Methods: Fluorescence measurements were recorded on a Perkin-Elmer LS-50B spectrofluorimeter equipped with a plate reader accessory. UV measurements were recorded on a Thermomax® microplate reader from Molecular Devices Corporation, Menlo Park, Calif., USA.
The fluorescence increase upon cleavage of the Ala-Ser amide bond was monitored using excitation λ=312 nm (slit 2.5 nm) and emission λ=415 nm ([…]). A protocol adaptable to a 96-well plate format was designed for the determination of IC50 values of inhibitors.
No quenching was required before fluorescence measurement since the total scanning time by the plate reader accessory was brief relative to the duration of the reaction. The aqueous incubation buffer contained 50 mM tris(hydroxymethyl)aminomethane-HCl pH 8, 0.5M Na2 SO4, 50 mM NaCl, 0.1 mM EDTA, 1 mM tris(2-carboxyethyl)phosphine.HCl, 3% v/v DMSO and 0.05% w/v casein. The final concentrations of HCMV No protease (expressed in terms of total monomer concentration) and substrate were 100 nM and 5 μM respectively. IC50 values were obtained through fitting of the inhibition curve to a competitive inhibition model using SAS NLIN procedure. The mode of inhibition was determined by measurements of the initial rates (in cuvettes) at various substrate concentrations in the buffer as described above.

Series [3] can be described thus: Cytotoxic effects, tetrazolium salt (MTT) metabolic assay. It counts as cell-based. As to conditions: cytotoxicity, Table 1 and Table 2, read-out: TC50 (the source's name). Here is the method: Cytotoxic effects noted as TC50 in the following tables were determined according to the tetrazolium salt (MTT) metabolic assay, F. Denizot and F. Lang, J. Immun. Meth., 1986, 89, 271.

Series [4] relates to HCMV (strain AD169, ATCC VR-538). Kind of series: Plaque Reduction Assay (PRA), HCMV-infected Hs-68 cells. It counts as cell-based, human cytomegalovirus (HCMV). How it is done: B. Plaque Reduction Assay (PRA): Hs-68 cells (ATCC # CRL 1635) were seeded in 12-well plates at 83,000 cells/well in 1 mL of DMEM medium (Gibco Canada Inc.) supplemented with 10% fetal bovine serum (FBS, Gibco Canada Inc.). The plates were incubated for 3 days at 37° to allow the cells to reach 80-90% confluency prior to the assay.
The medium was removed from the cells by aspiration. The cells were then infected with approximately 50 PFU of HCMV (strain AD169, ATCC VR-538) in DMEM medium supplemented with 5% inactivated FBS (assay medium). (DMEM medium is commercially available and has been described by R. Dulbecco et al., Virology 1959, 8, 396.) The virus was allowed to adsorb to cells for 2 h at 37°. Following viral adsorption, the medium was removed from the wells by aspiration. The cells were then incubated with or without 1 mL of appropriate concentrations of test reagent in assay medium. Occasionally, test compounds were added 24 h post-infection. After 4 days of incubation at 37°, the medium was exchanged with fresh medium containing test compound and 4 days later the cells were fixed with 1% aqueous formaldehyde and stained with a 2% violet solution in 20% ethanol in water. Microscopic plaques were counted using a stereomicroscope. Drug effects were calculated as a percent reduction in the number of plaques in the presence of each drug concentration compared to the number observed in the absence of drug. Ganciclovir was used as a positive control in all experiments.
On the technique in general: Plaques are areas of infected cells; plaque reduction assays count them against a control.

Where [5] appears, read: Human betaherpesvirus 5, Hs68, plaque reduction, Hs-68 cells, HCMV strain AD169, Table 1 and Table 2, read-out: EC50.

Counter-ions that a name gives are not always drawn. Like-named read-outs stand apart in the source and are kept apart here. Non-standard residues stand in square brackets, D forms with d. Residues, ends and D or L forms follow the SMILES beside them. Tyr(3-NO2) = N[C@@H](Cc1ccc(O)c([N+](=O)[O-])c1)C(=O)O; 2Abz = Nc1ccccc1C(=O)O

T1 sequence (P16753 1-256): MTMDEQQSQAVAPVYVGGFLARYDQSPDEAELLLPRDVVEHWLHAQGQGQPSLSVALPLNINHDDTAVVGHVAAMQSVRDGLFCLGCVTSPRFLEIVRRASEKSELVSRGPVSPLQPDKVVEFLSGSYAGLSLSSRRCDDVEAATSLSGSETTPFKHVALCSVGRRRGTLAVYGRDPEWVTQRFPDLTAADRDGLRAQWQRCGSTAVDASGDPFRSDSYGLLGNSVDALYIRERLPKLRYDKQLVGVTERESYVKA

For the compound `CC(C)C[C@H](NC(=O)[C@H](CCCNC(=N)N)NC(=O)[C@H](CO)NC(=O)[C@H](CO)NC(=O)[C@H](C)NC(=O)[C@H](CC(N)=O)NC(=O)[C@@H](NC(=O)[C@@H](NC(=O)c1ccccc1N)C(C)C)C(C)C)C(=O)N[C@@H](Cc1ccc(O)c([N+](=O)[O-])c1)C(=O)N[C@@H](CCCNC(=N)N)C(=O)O` (H-[2Abz]VVNASSRL[Tyr(3-NO2)]R-OH), the “Kcat /KM” value in series [1] worked out at 260 M⁻¹ s⁻¹.
Take `CC(C)C[C@@H](CS[C@H]1CC(=O)N1C(=O)NCc1ccccc1)NC(=O)[C@@H](NC(=O)OC(C)(C)C)C(C)(C)C` [Entry 101]: the IC50 in series [2] turned out to be 400 nM. In addition, the CC50 in series [3] is above 11 µM. Also, the EC50 in series [4] (setting [5]) was above 11 µM.
On to `C[C@@H](NC(=O)N1C(=O)C[C@@H]1Sc1ccccc1)c1ccccc1` [Entry 102], for which the CC50 in series [3] was above 100 µM. The EC50 in series [4] (setting [5]) was found to be 40 µM.
On to `C[C@@H](NC(=O)N1C(=O)C[C@@H]1SCc1ccccc1)c1ccccc1` [Entry 103], for which the midpoint of inhibition in series [2], the IC50, lay at 12400 nM. In addition, in series [3], the CC50 is above 5 µM. The EC50 in series [4] (setting [5]) is above 5 µM.
Consider `C[C@@H](NC(=O)N1C(=O)C[C@@H]1SCCc1ccccc1)c1ccccc1` [Entry 104], for which the IC50 in series [2] was 6500 nM. Besides, the CC50 in series [3] is above 4 µM. Moreover, in series [4] (setting [5]), the EC50 was above 4 µM.
As to `C[C@@H](NC(=O)N1C(=O)C[C@@H]1SC[C@H](CCS(C)(=O)=O)NC(=O)[C@@H](NC(=O)OC(C)(C)C)C(C)(C)C)c1ccccc1` [Entry 105], in series [2], 200 nM corresponded to half-maximal inhibition (IC50). In addition, the CC50 in series [3] is above 250 µM. For the same compound, the EC50 in series [4] (setting [5]) came to 110 µM.
With `C[C@@H](NC(=O)N1C(=O)C[C@H]1SC[C@H](CCS(C)(=O)=O)NC(=O)[C@@H](NC(=O)OC(C)(C)C)C(C)(C)C)c1ccccc1` [Entry 106], 620 nM corresponded to half-maximal inhibition in series [2] (IC50). The CC50 in series [3] is above 250 µM. Further, the EC50 in series [4] (setting [5]) was determined as 230 µM.
Regarding `C[C@@H](NC(=O)N1C(=O)C[C@H]1[S+]([O-])c1ccccc1)c1ccccc1` (stereo partly drawn) [Entry 107], the concentration for half-maximal inhibition (IC50) in series [2] was found to be 9000 nM.
On the same count and under the same terms, under `C[C@@H](NC(=O)N1C(=O)C[C@@H]1[S+]([O-])c1ccccc1)c1ccccc1` (stereo partly drawn) [Entry 108] stands 4000 nM.
In turn, `C[C@@H](NC(=O)N1C(=O)C[C@@H]1SCc1ccncc1)c1ccccc1` [Entry 109] yielded an IC50 in series [2] of 2100 nM. For the same compound, the CC50 in series [3] was above 250 µM. Also, the EC50 in series [4] (setting [5]) is 65 µM.
For `C[C@@H](NC(=O)N1C(=O)C[C@@H]1SCc1cccnc1)c1ccccc1` [Entry 110], in that order: 2000 nM, above 200 µM and 96 µM.
The like results for `C[C@@H](NC(=O)N1C(=O)C[C@@H]1SCc1ccccn1)c1ccccc1` [Entry 111] were, in that order, 2500 nM, 180 µM and 60 µM.
Take `C[C@@H](NC(=O)N1C(=O)C[C@@H]1SCC(=O)c1ccccc1)c1ccccc1` [Entry 112]: in series [2], the IC50 is 1000 nM. Also, in series [3], the CC50 is above 37 µM. Besides, the EC50 in series [4] (setting [5]) was above 37 µM.
`CC[C@@H](NC(=O)N1C(=O)C[C@@H]1SCc1ccccn1)c1ccccc1` [Entry 114, 4(S)-{(2-pyridinylmethyl)thio}azetidin-2-one-1-carboxylic acid (1(R)-phenylpropyl)amide hydrochloride]: in series [2], the IC50 worked out at 1200 nM. In addition, in series [3], the CC50 is above 200 µM. For the same compound, in series [4] (setting [5]), the EC50 is 80 µM.
The like results for `CC[C@@H](NC(=O)N1C(=O)C[C@@H]1SC[C@H](CC(C)C)NC(=O)[C@@H](NC(=O)CC(C)(C)C)C(C)(C)C)c1ccccc1` [Entry 115] were, in that order, below 60 nM, above 250 µM and above 250 µM.
As for `O=C1C[C@H](SCc2ccccn2)N1C(=O)N[C@H](CO)c1ccccc1` [Entry 116], in series [2], the IC50 amounted to 3600 nM.
Take `CC(C)C[C@@H](CO[C@@H]1CC(=O)N1C(=O)NCc1ccccc1)NC(=O)OC(C)(C)C` [Entry 201]: in series [2], the IC50 came out at 44000 nM.
`CC(C)C[C@@H](CO[C@@H]1CC(=O)N1C(=O)NCc1ccccc1)NC(=O)[C@@H](NC(=O)OC(C)(C)C)C(C)(C)C` [Entry 202] yielded an IC50 in series [2] of 1300 nM. Besides, the CC50 in series [3] is above 52 µM. Besides, the EC50 in series [4] (Human betaherpesvirus 5, AD169, Hs68) was 64 µM.
`CC(C)C[C@@H](CO[C@H]1CC(=O)N1C(=O)N[C@H](C)c1ccccc1)NC(=O)[C@@H](NC(=O)OC(C)(C)C)C(C)(C)C` [Entry 203] came in with an IC50 in series [2] of 320 nM. The CC50 in series [3] is above 49 µM. The EC50 in series [4] (setting [5]) was above 49 µM.
In turn, `CC(C)C[C@@H](CO[C@@H]1CC(=O)N1C(=O)NCc1ccccc1)NC(=O)[C@@H](NC(=O)CC(C)(C)C)C(C)(C)C` [Entry 204] showed an IC50 in series [2] of 160 nM.
In the case of `CN(C(=O)CC(CO[C@@H]1CC(=O)N1C(=O)NCc1ccccc1)NC(=O)CC(C)(C)C)C(C)(C)C` (stereo partly drawn) [Entry 205], half-maximal inhibition in series [2] (IC50) required 5000 nM. Moreover, in series [3], the CC50 was above 250 µM. Also, the EC50 in series [4] (setting [5]) is above 250 µM.
In series [2], `C[C@@H](NC(=O)N1C(=O)C[C@H]1Oc1ccc(Cl)cc1)c1ccccc1` [Entry 206] yielded an IC50 of 1600 nM.
In the case of `C[C@@H](NC(=O)N1C(=O)C[C@@H]1Oc1ccc(Cl)cc1)c1ccccc1` [Entry 207], in series [2], the IC50 is 800 nM. Also, in series [3], the CC50 is above 250 µM. In addition, the EC50 in series [4] (setting [5]) amounted to 250 µM.
`C[C@@H](NC(=O)N1C(=O)C[C@@H]1OCCNC(=O)c1ccc(NC(=O)CC(C)(C)C)cc1)c1ccccc1` [Entry 208] came in with an IC50 in series [2] of 21000 nM. This lies in the double-digit micromolar range.
Same read-out and setting: under `COC(=O)[C@@H](C)O[C@@H]1CC(=O)N1C(=O)N[C@H](C)c1ccccc1` [Entry 209] stands 21500 nM; under `COC(=O)[C@H](C)O[C@H]1CC(=O)N1C(=O)N[C@H](C)c1ccccc1` [Entry 210], 3800 nM.

One may read the IC50 as the concentration that gives 50% inhibition. For orientation: EC50 means the midpoint of the concentration-response curve.
